The results in this text go back to ChEMBL document CHEMBL3045284 (Crop Prot, 2009).

What all share (assay type): functional
The subject of experiment [1] is Pyricularia oryzae. Put plainly: Antifungal activity against drug-sensitive Magnaporthe oryzae infected six-leaf stage of rice plant assessed as reduction of susceptible lesion number per leaf area at 2 time MIC treated 24 hr before fungal infection measured after 6 days relative to control. On the set-up: scale not given: the % may be the effect or the level left.

Experiment [2] has as its system Pyricularia oryzae. Put plainly: Antifungal activity against drug-sensitive Magnaporthe oryzae infected six-leaf stage of rice plant assessed as reduction of disease recovery at 2 time MIC treated 24 hr before fungal infection measured after 6 days relative to control. On the set-up: scale not given: the % may be the effect or the level left.
Experiment [3] relates to Pyricularia oryzae. Put plainly: Antifungal activity against Magnaporthe oryzae infected six-leaf stage of rice plant assessed susceptible lesion number per leaf area at 8 time MIC treated 24 hr before fungal infection measured after 24 hr.
The test system of experiment [4] is Pyricularia oryzae. Put plainly: Antifungal activity against Magnaporthe oryzae infected six-leaf stage of rice plant assessed susceptible lesion number per leaf area at 4 time MIC treated 24 hr before fungal infection measured after 24 hr.
Experiment [5] concerns Pyricularia oryzae. Put plainly: Antifungal activity against Magnaporthe oryzae infected six-leaf stage of rice plant assessed susceptible lesion number per leaf area at 2 time MIC treated 24 hr before fungal infection measured after 24 hr.
In experiment [6] the test system is Pyricularia oryzae. Put plainly: Antifungal activity against Magnaporthe oryzae infected six-leaf stage of rice plant assessed susceptible lesion number per leaf area at MIC treated 24 hr before fungal infection measured after 24 hr.
Experiment [7] concerns Pyricularia oryzae. Put plainly: Antifungal activity against drug-sensitive Magnaporthe oryzae infected six-leaf stage of rice plant assessed susceptible lesion number per leaf area treated 24 hr before fungal infection measured after 24 hr.
For experiment [8], the system named is Pyricularia oryzae. Description: Antifungal activity against drug-sensitive Magnaporthe oryzae infected six-leaf stage of rice plant assessed as disease recovery treated 24 hr before fungal infection measured after 24 hr.
Experiment [9] concerns Pyricularia oryzae. Description: Antifungal activity against Magnaporthe oryzae infected six-leaf stage of rice plant assessed as disease recovery at MIC treated 24 hr before fungal infection measured after 24 hr.
For experiment [10], the system named is Pyricularia oryzae. Put plainly: Antifungal activity against Magnaporthe oryzae infected six-leaf stage of rice plant assessed as disease recovery at 2 time MIC treated 24 hr before fungal infection measured after 24 hr.
The subject of experiment [11] is Pyricularia oryzae. Put plainly: Antifungal activity against Magnaporthe oryzae infected six-leaf stage of rice plant assessed as disease recovery at 4 time MIC treated 24 hr before fungal infection measured after 24 hr.
Experiment [12] relates to Pyricularia oryzae. Description: Antifungal activity against Magnaporthe oryzae infected six-leaf stage of rice plant assessed as disease recovery at 8 time MIC treated 24 hr before fungal infection measured after 24 hr.

Take `CCOP(=O)(Sc1ccccc1)Sc1ccccc1` [EDIFENPHOS]: the Activity in the experiment on Pyricularia oryzae [1] was 63.5%; in the experiment with Pyricularia oryzae [2], 55.6%; in the experiment with Pyricularia oryzae [3], 0.03 cm2; in the experiment on Pyricularia oryzae [4], 0.07 cm2; in the experiment with Pyricularia oryzae [5], 0.14 cm2; in the experiment with Pyricularia oryzae [6], 0.19 cm2. For the same molecule, the Activity in the experiment on Pyricularia oryzae [7] is reported as 0.1 cm2; in the experiment on Pyricularia oryzae [8] it was 0.27%; in the experiment on Pyricularia oryzae [9] it was 0.49%; in the experiment with Pyricularia oryzae [10], 0.35%; in the experiment with Pyricularia oryzae [11], 0.18%; in the experiment with Pyricularia oryzae [12], 0.08%.

Take `CC(C)OP(=O)(OC(C)C)SCc1ccccc1` [IPROBENFOS]: the Activity was 28.1% in the experiment with Pyricularia oryzae [1]; 28.8% with Pyricularia oryzae [2]; 0.39 cm2 with Pyricularia oryzae [3]; 0.93 cm2 with Pyricularia oryzae [4]; 1.13 cm2 in the experiment on Pyricularia oryzae [5]; 1.28 cm2 in the experiment with Pyricularia oryzae [6]. Besides, the Activity with Pyricularia oryzae [7] stood at 0.73 cm2; in the experiment with Pyricularia oryzae [8] it was 0.8%; in the experiment with Pyricularia oryzae [9] it was 1.23%; in the experiment with Pyricularia oryzae [10], 1.17%; in the experiment with Pyricularia oryzae [11] it was 0.87%; with Pyricularia oryzae [12], 0.45%.
